Measured values: paper PMC10386886, “First-in-class multifunctional TYMS nonclassical antifolate inhibitor with potent in vivo activity that prolongs survival” (JCI Insight, 2023)

Legend:
in vivo = details: NSG, mouse, po
Description: Maximum tolerated dose (MTD)
experiment) or 5, 10, 25 or 50 mg/kg of 5-FU daily during 5 consecutive days. After 3 treatment cycles,
animals rested (no treatment) for one more week before euthanasia. Body weight and physical status
of all mice were closely monitored. Tissues were collected and fixed in alcoholic formalin to test for
daily during 5 consecutive days for 3 weeks. After 3 treatment cycles, animals rested (no treatment) for
one more week before euthanasia. Body weight and physical status of all mice were closely monitored.
Tissues were collected and fixed in alcoholic formalin to test for toxicity.
Specimens were fixed in alcoholic formalin for 48h and then transferred to 70% ethanol, processed and
embedded in paraffin. Tissues were serially sectioned and stained by conventional H&E. Slides were

[1] = system: Luc-PANC-1 xenograft tumors; assay: Luc-PANC-1 subcutaneous xenograft tumor model; format: in vivo; details: 25 mg/kg PO, 4 cycles, Figure 9
Description: In the subcutaneous tumor model, the resulting Luc-PANC-1 xenograft tumors were monitored by direct tumor measurements and bioluminescence photon flux that is proportional to tumor size. […] Treatment was initiated 30 days after Luc-PANC-1 cell line subcutaneous injections (5 × 10^6 cells), when tumors reached 100 mm^3 in volume, generating a bioluminescence photon flux of 3 × 10^9 to 4 × 10^9 photons/s. […] Tumors from both treatment groups were excised, and the tumor mass was weighed (Figure 2E).
Luc-PANC-1 (5 × 10^6) and Luc-CM (0.5 × 10^6) cells were resuspended in 200 μL of PBS and injected subcutaneously or IP, respectively, into 6- to 8-week-old NSG mice. Tumor-bearing mice were imaged using Xenogen IVIS Lumina Bioluminescence Imaging System (PerkinElmer) every week after cell injection. […] For all animals, body weight was recorded weekly, and Luc-PANC-1 tumor volume was measured weekly with a caliper. For scheduled sacrifice experiments, animals were euthanized after 4 weeks of treatment. […] Tumor volume was calculated as volume = 0.52(length × width^2).
Prior to bioluminescence imaging the region where tumors were located was shaved. […] Following the injection of the D-luciferin substrate mice, were imaged using the Xenogen IVIS Lumina Bioluminescence Imaging System (PerkinElmer). The peak of luciferase photon flux was recorded 6 minutes after injection of the D-luciferin substrate. The total photon flux was analyzed and restricted to tumor region of interest using Living Image v2.60.1 software (Imaging Systems).

purified human TYMS = biological target: T1, purified human TYMS (Homo sapiens, UniProt P04818); assay: Competitive drug displacement assay (tritium TYMS assay); format: biochemical
T1 construct: 6xHis (N); made in house; host or cells: E. coli BL21 (DE3), vector pQE80L-hTYMS
Description: For these experiments the TYMS protein was first incubated with each drug, and the reaction was then initiated by addition of 5,10-mTHF and dUMP using different concentrations of either 5,10-mTHF or dUMP to change the substrate/drug ratio. If there was competition between one of the substrates and the drug for the same binding site, then increasing the substrate concentration would displace more of the prebound drug and shift the equilibrium toward the enzyme/substrate complex, thus allowing the conversion of dUMP to proceed (Figure 7A). […]
all components including 2 µg TYMS protein to show the range of the assay, the background signal, and the dependence on 5,10-mTHF (Supplemental Figure 2C). To determine the signal from the [5-3H]dUMP tracer used in each reaction the same amount of the dUMP substrate with the [5-3H]dUMP tracer accounting for 0.06% of the final dUMP concentration was added directly to 5 mL of ultima gold liquid scintillation cocktail (Supplemental Figure 2C).
All reactions were performed in biological duplicate and technical duplicate. Results were analyzed using GraphPad Prism 9.
Competitive drug displacement assay
The tritium based TYMS catalytic activity assay was modified to determine if TYMS inhibition from 19-S, 19-S5, and 19-S7 was the result of competitive binding with either the dUMP substrate or the 5,10-mTHF cofactor. The competitive drug displacement assay utilized the standard reaction conditions for the tritium-based TYMS catalytic activity assay including 40 µM dUMP (Sigma Aldrich, Cat # D3876) with the [5- 3H]dUMP tracer (ViTrax, VT122) accounting for 0.06% of the final dUMP concentration and 100 µM 5,10- methylene tetrahydrofolate (defined as 1x dUMP and 1x 5,10-mTHF). Concentrations of total dUMP and 5,10- mTHF were then changed relative to these 1x concentrations to concisely indicate the changes in either the substrate or cofactor concentration. The highest 5x concentration of 5,10 - […]
5x concentration of total dUMP was not limited by solubility, although increases were performed in the same increments as 5,10-mTHF for comparison and 0.06% of the [5-3H]dUMP tracer was maintained at all concentrations. The remaining components in each 200 µL reaction were consistent in all reactions and included 2 µg of purified human TYMS in 50 mM KH2PO4 (Sigma Aldrich, Cat # P0662) and 100 mM β- mercaptoethanol (Sigma Aldrich, Cat # M7522). Control antifolate inhibitor PEM (Sigma Aldrich, Cat # PHR1596) was performed for reference of a TYMS specific classical antifolate and to […]
Human TYMS and DHFR preparation
Human Thymidylate Synthase (hTYMS) and human Dihydrofolate Reductase (hDHFR) were both expressed in BL21 (DE3) E. coli cells, using a standard BL21 transformation protocol, with the expression vector pQE80L-hTYMS (gift from Maria Paola Costi, University of Modena and Reggio Emilio, Italy) and pET100/D- TOPO (Invitrogen, Cat # K10001), respectively. Both vectors contained an N-terminal 6x Histidine tag attached to either hTYMS or hDHFR. After bacterial transformation, cells

MIA PaCa-2 cells = assay: MTS viability assay, MIA PaCa-2; format: cell-based; details: Homo sapiens, 72-hour drug treatment, Figure 6E, highest concentration 350 μM
Description: Cells were harvested after 72 hours, and cell pellets were stored at –80°C. […] After 72 hours, cell viability was assessed by reduction of MTS using Cell Titer 96 R Aqueous One Solution Cell Proliferation Assay Kit (Promega, catalog G8081), following manufacturer’s recommendations. […] was measured on a SpectraMax M3 (Molecular Devices). Data were plotted in GraphPad Prism 9 to determine GI50 concentration. Chemical synthesis details, including characterization of each compound, can be found in the Supplemental section associated with this publication.

DHFR = biological target: T2, DHFR (Homo sapiens, UniProt P00374); assay: Absorbance-based DHFR activity assay; format: biochemical; details: Figure 6D
T2 construct: purchased Sigma D6566 (kit CS0340)
T2 sequence (P00374 1-187): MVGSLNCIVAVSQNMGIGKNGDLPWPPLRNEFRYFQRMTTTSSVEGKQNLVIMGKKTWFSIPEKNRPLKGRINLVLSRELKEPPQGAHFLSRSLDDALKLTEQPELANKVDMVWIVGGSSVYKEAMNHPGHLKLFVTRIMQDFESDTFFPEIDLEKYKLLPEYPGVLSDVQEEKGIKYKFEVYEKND
Description: DHFR assay kit (Sigma Aldrich, Cat # CS0340) as described by the manufacturer. 0.1-unit DHFR
analogues or control drugs, 6 μL NADPH Cat # N6505 solution and 5 μl of dihydrofolic acid (DHFR
substrate) (Sigma, Cat # D7006). The reaction was then read on the spectrophotometer at 340 nm at
22 °C every 15 seconds for 2.5 minutes.

[2] = TS preincubated with drug, Figure 7

T1 sequence (P04818 whole entry): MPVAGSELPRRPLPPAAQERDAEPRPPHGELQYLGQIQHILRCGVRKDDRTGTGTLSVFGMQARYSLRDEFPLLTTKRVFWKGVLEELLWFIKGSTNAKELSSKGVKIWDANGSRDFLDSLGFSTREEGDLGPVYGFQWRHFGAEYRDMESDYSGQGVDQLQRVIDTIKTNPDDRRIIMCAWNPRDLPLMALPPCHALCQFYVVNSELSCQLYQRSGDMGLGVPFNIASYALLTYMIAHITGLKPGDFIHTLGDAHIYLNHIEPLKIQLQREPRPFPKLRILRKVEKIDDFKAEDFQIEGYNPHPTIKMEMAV

What does the source list for `CCc1nc(N)nc(N)c1-c1ccc(N(C)Cc2ccc3c(c2)OCO3)c([N+](=O)[O-])c1` [Compound 19-S7]?
MTD at 3 weeks (in vivo): 25 mg/kg; Bioluminescence photon flux [1]: reduced bioluminescence photon flux; Body weight [1]: did not show adverse effects on or declines in body weight; Final excised tumor mass [1]: reduced mass of the final excised tumors; Tumor volume [1]: reduced and stable tumor volumes; Mechanism of TYMS inhibition (purified human TYMS): blocking the folate-binding site; dUMP conversion with increasing 5,10-mTHF concentration (purified human TYMS; [2]): increased the amount of dUMP conversion; dUMP conversion with increasing dUMP concentration (purified human TYMS; [2]): the amount of dUMP conversion did not increase; GI50 (MIA PaCa-2 cells): 200 nM; DHFR activity, comparison at reduced drug concentrations (DHFR): potent TYMS and DHFR inhibition
